Results: ChEMBL document CHEMBL1201862, “PubChem BioAssay data set” (2004)
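Exposure lasted 48 hours, with cells grown in 96-well plates and compounds tested at five concentrations. At the GI50, growth is halved.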 Calls of active or inactive are those of the source. Cut-off read from the data, not from the text of the source: active = GI50 up to about 1.1 µM and inactive = higher.

Experiments:
Assay in all cases: growth of human tumour cells (NCI), 48 h
M14 = test system: M14
MDA-MB-231 = test system: MDA-MB-231
NCI-H460 = test system: NCI-H460
LOX IMVI = test system: LOX IMVI
NCI/ADR-RES = test system: NCI/ADR-RES
OVCAR-8 = test system: OVCAR-8
IGROV-1 = test system: IGROV-1
EKVX = test system: EKVX
786-0 = test system: 786-0
HL-60 = test system: HL-60
SNB-75 = test system: SNB-75
SR = test system: SR
MCF7 = test system: MCF7
UACC-257 = test system: UACC-257
CCRF-CEM = test system: CCRF-CEM
CAKI-1 = test system: CAKI-1
A549 = test system: A549
SK-OV-3 = test system: SK-OV-3
UACC-62 = test system: UACC-62
HCT-15 = test system: HCT-15

## c1ccc2c(c1)Nc1c3ccccc3nc3cccc-2c13
M14
  GI50: 1.76 µM (inactive)
MDA-MB-231
  GI50: 923 nM (active)
NCI-H460
  GI50: 378 nM (active)
LOX IMVI
  GI50: 877 nM (active)
NCI/ADR-RES
  GI50: 1.05 µM (active)
OVCAR-8
  GI50: 507 nM (active)
IGROV-1
  GI50: 1.21 µM (inactive)
EKVX
  GI50: 1.55 µM (inactive)
786-0
  GI50: 638 nM (active)
HL-60
  GI50: 1.58 µM (inactive)
SNB-75
  GI50: 1.65 µM (inactive)
SR
  GI50: 462 nM (active)
MCF7
  GI50: 1.24 µM (inactive)
UACC-257
  GI50: 1.73 µM (inactive)
CCRF-CEM
  GI50: 305 nM (active)
CAKI-1
  GI50: 1.08 µM (active)
A549
  GI50: 1.05 µM (active)
SK-OV-3
  GI50: 1.35 µM (inactive)
UACC-62
  GI50: 1.63 µM (inactive)
HCT-15
  GI50: 632 nM
